# Laboratory results as given in ChEMBL document CHEMBL2203027, “Lanostanoids from fungi: a group of potential anticancer compounds” (J Nat Prod, 2012).
# System: HeLa
# Test: Cytotoxicity against human HeLa cells
# Format: functional, cell-based
# Details: Homo sapiens, HeLa
row,Structure (SMILES),IC50 [µM]
1,C[C@H](CCC(=O)O)[C@H]1CC[C@@]2(C)C3=C(CC[C@]12C)[C@@]1(C)CCC(=O)C(C)(C)[C@@H]1CC3=O,11
2,CC(=O)O[C@@H]1C(=O)C2=C(C(=O)C[C@H]3C(C)(C)C(=O)CC[C@]23C)[C@]2(C)C(=O)C[C@H]([C@H](C)CC(=O)CC(C)C(=O)O)[C@@]12C (stereo partly drawn) [GANODERIC ACID F],> 300
3,CC(=O)O[C@@H]1C(=O)C2=C([C@@H](O)C[C@H]3C(C)(C)C(=O)CC[C@]23C)[C@]2(C)C(=O)C[C@H](/C(C)=C\C(=O)CC(C)C(=O)O)[C@@]12C (stereo partly drawn),> 300
4,C/C(=C\CC[C@@H](C)[C@H]1CC[C@@]2(C)C3=C([C@@H](O)C[C@]12C)[C@@]1(C)CCC(=O)C(C)(C)[C@@H]1CC3=O)C(=O)O,11
5,C[C@H](CC(=O)C[C@@H](C)[C@H]1CC(=O)[C@@]2(C)C3=C(C(=O)C[C@]12C)[C@@]1(C)CCC(=O)C(C)(C)[C@@H]1CC3=O)C(=O)O [GANODERIC ACID E],101
6,CC(CC(=O)C[C@@H](C)[C@H]1C[C@H](O)[C@@]2(C)C3=C(C(=O)C[C@]12C)[C@@]1(C)CCC(=O)C(C)(C)[C@@H]1CC3)C(=O)O (stereo partly drawn) [GANOLUCIDIC ACID A],101
7,CC(CC(=O)C[C@@H](C)[C@H]1C[C@H](O)[C@@]2(C)C3=C(C(=O)C[C@]12C)[C@@]1(C)CCC(=O)C(C)(C)[C@@H]1CC3=O)C(=O)O (stereo partly drawn) [GANODERIC ACID J],> 300
8,C/C(=C\CC[C@@H](C)[C@H]1CC[C@@]2(C)C3=CC[C@H]4C(C)(C)[C@@H](O)CC[C@]4(C)C3=CC[C@]12C)CO [GANODEROL B],101
9,CC(CC(=O)C[C@@H](C)[C@H]1CC(=O)[C@@]2(C)C3=C(C(=O)C[C@]12C)[C@@]1(C)CC[C@H](O)C(C)(C)[C@@H]1C[C@@H]3O)C(=O)O (stereo partly drawn) [GANODERIC ACID B],202
10,CC(CC(=O)C[C@@H](C)[C@H]1CC(=O)[C@@]2(C)C3=C(C(=O)[C@@H](O)[C@]12C)[C@@]1(C)CCC(=O)C(C)(C)[C@@H]1CC3=O)C(=O)O (stereo partly drawn),> 300
11,COC(=O)C(C)CC(=O)C[C@@H](C)[C@H]1CC(=O)[C@@]2(C)C3=C(C(=O)[C@@H](OC(C)=O)[C@]12C)[C@@]1(C)CC[C@H](O)C(C)(C)[C@@H]1C[C@@H]3O (stereo partly drawn),101
12,C[C@H](CC[C@H](O)C(C)(C)O)[C@H]1CC[C@@]2(C)C3=C(CC[C@]12C)[C@@]1(C)CCC(=O)C(C)(C)[C@@H]1CC3=O [LUCIDUMOL A],11
13,C[C@H](CC[C@@H](O)C(C)(C)O)[C@H]1CC[C@@]2(C)C3=CC[C@H]4C(C)(C)C(=O)CC[C@]4(C)C3=CC[C@]12C [GANODERMANONDIOL],11
14,CC(CC(=O)C[C@@H](C)[C@H]1CC(=O)[C@@]2(C)C3=C(C(=O)[C@@H](O)[C@]12C)[C@@]1(C)CCC(=O)C(C)(C)[C@@H]1C[C@@H]3O)C(=O)O (stereo partly drawn),> 300
15,C/C(=C\CC[C@@H](C)[C@H]1CC[C@@]2(C)C3=C([C@H](O)C[C@]12C)[C@@]1(C)CCC(=O)C(C)(C)[C@@H]1CC3=O)C(=O)O,101
16,C/C(=C\CC[C@@H](C)[C@H]1CC[C@@]2(C)C3=C(CC[C@]12C)[C@@]1(C)CC[C@H](O)C(C)(C)[C@@H]1CC3=O)C(=O)O,> 300
17,CC(=O)[C@H]1CC(=O)[C@@]2(C)C3=C(C(=O)C[C@]12C)[C@@]1(C)CC[C@H](O)C(C)(C)[C@@H]1C[C@@H]3O [LUCIDONE A],101

# Same assay, conditions: hela
row,Structure (SMILES),IC50 [µM]
1,CC(CC(=O)C[C@@H](C)[C@H]1CC(=O)[C@@]2(C)C3=C(C(=O)C[C@]12C)[C@@]1(C)CCC(=O)C(C)(C)[C@@H]1C[C@@H]3O)C(=O)O (stereo in doubt; 10) [GANODERIC ACID D],31
2,CC(CC(=O)C[C@@H](C)[C@H]1CC(=O)[C@@]2(C)C3=C(C(=O)C[C@]12C)[C@@]1(C)CCC(=O)C(C)(C)[C@@H]1C[C@@H]3O)C(=O)O (stereo in doubt; 81) [GANODERIC ACID D],> 300

# System: not listed separately
# Test: Cytotoxicity against mouse Meth-A cells
# Format: functional, cell-based
# Details: read-out: ED50 (the source's name)
row,Structure (SMILES),EC50 [µg/mL]
1,C/C(=C\[C@@H](O)C[C@@H](C)[C@H]1CC(=O)[C@@]2(C)C3=C(C(=O)[C@@H](O)[C@]12C)[C@@]1(C)CC[C@H](O)C(C)(C)[C@@H]1CC3=O)C(=O)O [GANODERIC ACID THETA],2.3
2,C[C@H](CC[C@H](O)C(C)(C)O)[C@H]1CC[C@@]2(C)C3=C(CC[C@]12C)[C@@]1(C)CCC(=O)C(C)(C)[C@@H]1CC3=O [LUCIDUMOL A],2.3
3,C[C@H](CC[C@@H](O)C(C)(C)O)[C@H]1CC[C@@]2(C)C3=CC[C@H]4C(C)(C)C(=O)CC[C@]4(C)C3=CC[C@]12C [GANODERMANONDIOL],3.4

# Species: Mus musculus
# Test: Inhibition of TPA-induced tumor progression in mouse skin at 0.2 umol measured at week 20
# Format: functional
# Details: not given
row,Structure (SMILES),inhibition (INH) [%]
1,C=C(C)[C@@H]1CC=C2C(=CC[C@]3(C)[C@@H]([C@@H](CCC=C(C)C)C(=O)O)[C@H](O)C[C@@]23C)[C@@]1(C)CCC(=O)O [PORICOIC ACID B],68

# System: not listed separately
# Test: Cytotoxicity against mouse LLC cells
# Format: functional, cell-based
# Details: Lewis lung carcinoma, read-out: ED50 (the source's name)
row,Structure (SMILES),EC50 [µg/mL]
1,C/C(=C\[C@@H](O)C[C@@H](C)[C@H]1CC(=O)[C@@]2(C)C3=C(C(=O)[C@@H](O)[C@]12C)[C@@]1(C)CC[C@H](O)C(C)(C)[C@@H]1CC3=O)C(=O)O [GANODERIC ACID THETA],2.3
2,C[C@H](CC[C@H](O)C(C)(C)O)[C@H]1CC[C@@]2(C)C3=C(CC[C@]12C)[C@@]1(C)CCC(=O)C(C)(C)[C@@H]1CC3=O [LUCIDUMOL A],2.3
3,C[C@H](CC[C@@H](O)C(C)(C)O)[C@H]1CC[C@@]2(C)C3=CC[C@H]4C(C)(C)C(=O)CC[C@]4(C)C3=CC[C@]12C [GANODERMANONDIOL],2.3

# System: HL-60
# Test: Cytotoxicity against human HL60 cells
# Format: functional, cell-based
# Details: not given
Structure (SMILES),IC50 [µM],GI50 [nM]
CC(=O)O[C@H]1CC[C@]2(C)C3=C(CC[C@H]2C1(C)C)[C@]1(C)CC[C@H]([C@@H](CCC=C(C)C)C(=O)O)[C@@]1(C)CC3 [ACETYL TRAMETENOLIC ACID],25,
C=C(C)[C@@H]1CCC2=C(CC[C@]3(C)[C@@H]([C@@H](CCC=C(C)C)C(=O)O)[C@H](O)C[C@@]23C)[C@@]1(C)CCC(=O)O [PORICOIC ACID G],,39.3
